{
  "source": "patent US20140205688A1",
  "about": "“STIMULATING AGENT AND STIMULATING COMPOSITION” (priority 2011, published 2014)",
  "origin": "cited, not measured here",
  "system": "humans",
  "settings": "humans took in / absorbed the substance",
  "data": [
    {"compound": "O=C1CN=C(c2ccccc2)c2cc([N+](=O)[O-])ccc2N1", "note": "[Nitrazepam]", "values": [
      {"measurement": "amplitude of CNV", "value": "declined"}
    ]},
    {"compound": "Cn1c(=O)c2c(ncn2C)n(C)c1=O", "note": "[caffeine]", "values": [
      {"measurement": "amplitude of CNV", "value": "increased"}
    ]}
  ]
}
